The subject of the assay is T1, COX-2.
T1 construct: gene Ptgs2
The experiment in a line: chromogenic TMPD oxidation assay of COX-2 activity; RAW […] cells per figure legend. The format is biochemical.

For the compound `O=c1c2cc(O)c(O)cc2oc2cc(O)c([C@@H]3O[C@H](CO)[C@@H](O)[C@H](O)[C@H]3O)c(O)c12` [PT-Mangiferin, Mangiferin], the 50% inhibitory concentration (IC50) turned out to be 40 µM.

The values above are taken from PMC5316935, “Mangiferin from Pueraria tuberosa reduces inflammation via inactivation of NLRP3 inflammasome” (Scientific Reports, 2017).
